Assay results published in patent US11419814B2, “Transdermal compositions of ibuprofen and methods of use thereof” (Aponia Laboratories, Inc., priority 2011, dated 2022).
Where “and” joins values, the source holds several entries; their conditions need not be identical. Identical values can stand only once.

System: EpiSkin (reconstructed human epidermis)
Test: In vitro dermal irritation EpiSkin test (MTT viability)
Procedure: The SkinEthic EpiSkin® test system has been validated by OECD test method (439) as an in vitro model to assess skin irritation potential. The test uses human keratinocytes derived from healthy donors, grown in vitro to reconstruct a functional model of the human epidermis.
EpiSkin® units were shipped on transport agar in sterile plates of 12 individual units. Upon delivery, the condition of the EpiSkin® was assessed by checking the pH and temperature indicators. EpiSkin® units were transferred to 12 well plates containing EpiSkin® maintenance medium (2 mL). […] The negative control was Dulbecco's phosphate buffered saline (PBS) and the positive control was an aqueous solution of sodium dodecyl sulphate (SDS, 5%, w/v).
The formulations were applied to the skin “without dilution”. An aliquot (10 μL) of the undiluted formulations and control substances were applied to three replicate EpiSkin® tissues using a positive displacement pipette. The formulations and controls were gently spread over the entire surface of the exposed skin using the applicator tip.
The EpiSkin® was exposed to the formulations and control substances for 15 min±30 s. The EpiSkin® surface was then rinsed with PBS (ca 25 mL) and returned to a well containing fresh Maintenance Medium (2 mL). […]
After the recovery period, EpiSkin® units were tapped dry and transferred to wells containing a solution of MTT in EpiSkin Assay Medium (2 mL, 0.3 mg/mL). […] The cell viability of each tissue was calculated from optical density absorption readings with reference to the negative controls, which were assigned the nominal value of 100% viability.
Standard statistical techniques were used to calculate ODblank mean: the average OD of the blank (acidified isopropanol containing) wells. The corrected OD for each sample or control was calculated by subtracting the value of ODblank mean from each reading: ODcorrected=ODraw−ODblank mean
The % Viability for each sample and positive control was calculated as follows: % Viability=(ODcorrected/mean ODnegative controls)×100 […]

Compound: CCCCCCCCCCCCOS(=O)(=O)[O-].[Na+] [Aqueous SDS Solution (5%, w/v), sodium dodecyl sulphate]
- Mean Relative Viability per Treatment (%) (mean of three tissues, irritant (GHS category 2) if viability is 50% or less): 23.36%
- Mean Relative Viability per Tissue (%) (per replicate tissue (Rep 1-3), 15 min exposure, 42 h recovery, sulphate): 19.00% and 36.63% and 14.46%
- Relative Viability (%) (single readings, two per replicate tissue (Rep 1-3), 10 μL undiluted, 15 min exposure, 42 h recovery, negative control = 100%, sulphate): 19.05% and 18.95% and 36.18% and 37.08% and 13.81% and 15.12%
